Results as given in PubChem BioAssay (NCI).
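In this assay, cells in 96-well plates receive the compound at five concentrations for 48 hours. Endpoints are linearly interpolated between the surrounding concentrations. The concentration for 50% growth inhibition is given as GI50. The concentration for full growth arrest is given as TGI.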

Tests used:
Assay in all cases: NCI tumour cell line growth inhibition, 48 h
[1] = test system: DMS 114 small cell lung
[2] = test system: DMS 273 small cell lung
[3] = test system: RXF-631 renal
[4] = test system: SNB-78 CNS
[5] = test system: XF 498 CNS
[6] = test system: P388 leukemia
[7] = test system: P388/ADR leukemia
[8] = test system: SN12K1 renal

Row | Compound | TGI [1] | TGI [2] | TGI [3] | TGI [4] | TGI [5] | TGI [6] | TGI [7] | TGI [8] | GI50 [5]
1 | CCOC(=O)C1C=C2O[C@@H]3OC4(CCCCC4)O[C@@H]3C2[C@H]2C(=O)C=CC(=O)[C@@]12C(=O)OC (stereo partly specified) | 9.68 µM | 22.9 µM | 51.8 µM | 19.3 µM | 12.8 µM |  |  |  | 
2 | Cn1ncc2cc3c(Nc4ccc(Cl)cc4)cccc3nc21 | 28.9 µM |  | 74.7 µM | > 100 µM | 20.5 µM |  |  |  | 
3 | CCOC(=O)c1cccc(=O)c(C(=O)OCC)c1 | > 100 µM | > 100 µM | > 100 µM | > 100 µM | > 100 µM |  |  |  | 
4 | O=[N+]([O-])c1ccc(-c2ccc(/C=N/n3c(-c4ccc(Cl)cc4)n[nH]c3=S)o2)cc1 | > 100 µM | > 63.3 µM | > 55.5 µM | > 70.3 µM | 46.6 µM |  |  |  | 
5 | O=S(=O)(O)CS(=O)(=O)OCCCl | > 100 µM | > 100 µM | > 100 µM | > 100 µM | > 100 µM |  |  |  | 
6 | CNC(=O)OCc1nc(SC(C)C)n(C)c1COC(=O)NC | > 100 µM | > 100 µM |  | > 100 µM |  | > 100 µM | > 100 µM | > 100 µM | 
7 | CC(=O)Oc1c(C)n(CCCl)ccc1=O | > 100 µM | > 100 µM | > 100 µM | > 100 µM | > 100 µM |  |  |  | 
8 | O/N=C1/C(=C/c2ccc(F)cc2)CCCC1C(NO)c1ccc(F)cc1 (stereo unspecified) | > 100 µM | > 100 µM | > 100 µM | > 100 µM | > 100 µM |  |  |  | 
9 | CC(C)=CC(=O)CC(=O)C(=O)Nc1ccc(C)c(C)c1 |  | > 100 µM | > 100 µM | > 100 µM | > 100 µM |  |  |  | 
10 | CC(=O)O[C@H]1C(=O)[C@@]2(C)C([C@H](OC(=O)c3ccccc3)[C@]3(O)C[C@H](OC(=O)[C@H](O)[C@H](NC(=O)c4ccccc4)c4ccc(Cl)cc4)C(C)=C1C3(C)C)C1(OC(C)=O)CO[C@@H]1C[C@@H]2O (stereo partly specified) | 0.000649 µM |  | > 100 µM |  |  |  |  |  | 0.0182 µM
11 | CCOC(=O)/C(C1=N[C@H](C(=O)OCC)CS1)=C(\C)O |  |  | > 100 µM | > 100 µM | > 100 µM |  |  |  | 
12 | O=C(O)CN(c1ccc(Cl)cc1)S(=O)(=O)c1ccccc1 |  | > 100 µM | > 100 µM |  | > 100 µM |  |  |  | 
13 | CC1=C(C(=O)Nc2ccccc2)C(c2ccc3c(c2)OCO3)C(C(=O)Nc2ccccc2)=C(C)N1 | > 100 µM | 86.5 µM | > 100 µM |  | 85.4 µM |  |  |  | 
14 | NNC(=O)/C(=C/c1cccc([N+](=O)[O-])c1)NC(=O)c1ccccc1 | > 100 µM | > 100 µM | > 100 µM | > 100 µM | > 100 µM |  |  |  | 
15 | Cc1c(NC(=O)C(=O)N=NC(=O)c2ccncc2)c(O)c2ccccc2c1O | 15.3 µM | 23.2 µM | > 100 µM | 39.7 µM |  |  |  |  | 
